Reference: patent US5635516A, “(Thia) cycloalkyl[B]indole compounds as anti-inflammatory agents” (Adir et Compagnie, priority 1994, dated 1997)

Key:
[1] = system: phorbol 12-myristate-13-acetate induced ear swelling; experiment: Acute cutaneous inflammation in mice (phorbol 12-myristate-13-acetate test); type: in vivo; conditions: Mus musculus; topical on ears of mice 30 minutes before phorbol 12-myristate-13-acetate; swelling of the ear at 6 hours
Method: In the following test, the measurements were carried out on groups of five mice. The tests on the groups of control mice are carried out at the same time as those on the groups of mice which have received the test compounds.
5 μg of phorbol 12-myristate-13-acetate in 20 μl of an ethanol/water mixture (8:2) are applied to the front and rear surfaces of the right ears of the mice, 30 minutes after the application in a similar manner of the test compounds or of the vehicle (2×20 μl at 5-minute intervals in absolute alcohol). The swelling of the ear is measured 6 hours later with the aid of a Dyer micrometer. That measurement is used as the inflammation index.

5-lipoxygenase = experiment: LTB4 production by rabbit granulocytes stimulated in vitro by A 23187 (enzyme immunoassay); type: cell-based; conditions: 10-^7 M
Source text: (§1) The object of this study is to determine the effects of compounds of the invention on the lipoxygenase and cyclo-oxygenase activities of rabbit granulocytes stimulated in vitro by A 23187, by measuring the levels of PGE2 and LTB4 thus liberated by means of an enzyme immunoassay (EIA). The granulocytes are isolated from rabbit blood collected from the main artery of the ear according to the method described by Trush et al. (1978). They are suspended, at a density of 10^6 cells/cm^3, in a phosphate buffer (mM): NaCl: 137; KCl: 2.68; Na2 HPO4 : 8.1; KH2 PO4 : 1.47; CaCl2 : 0.9; MgCl2 : 0.5 The freshly obtained granulocytes are pre-incubated for a period of 15 minutes at 37° C. in the presence of the test products. The results are expressed as percentages of the positive control. The values are presented as the mean±s.e.m. of three measurements carried out on the same day, for the "screening" study, and of three measurements carried out on three different days for the IC50 study. The IC50 values and the Hill number values (Hn) are determined by modelling using the Hill equation.

cyclo-oxygenase = experiment: PGE2 production by rabbit granulocytes stimulated in vitro by A 23187 (enzyme immunoassay); type: cell-based; conditions: 10-^7 M
Source text: as §1

SMILES | IC50 [1] | inhibition of the production of LTB4 (5-lipoxygenase) | effect on the production of PGE2 (cyclo-oxygenase)
CCOC(=O)Cn1c2c(c3cc(OCc4ccc5ccccc5n4)ccc31)CCCCCC2 [Example 2] | 20 µM | completely | without reducing
O=C(O)Cn1c2c(c3cc(OCc4ccc5ccccc5n4)ccc31)CCCCCC2 [Example 4, 2-{3-[(QUINOL-2-YL)METHYLOXY]-5,6,7,8,9,10,11-HEPTAHYDRO-CYCLOOCT[b]INDOLE}ACETIC ACID] | 15 µM |  | 
